Test results: PubChem BioAssay (NCI)
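Five concentrations, 48 hours, 96-well plates. TGI: total growth inhibition.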

Each compound was assayed on SNB-19 CNS (assay: inhibition of tumour cell growth, NCI panel, 48 h).

SMILES | TGI
O=C1Oc2ccccc2C(=O)/C1=C/N1C(=O)CNC1=S | > 100 µM
CC1=NN(c2nc(N)nc(/C(C#N)=C\c3ccc(-c4ccc([N+](=O)[O-])cc4)o3)n2)C(C)(C)C1 | > 100 µM
COc1ccc2nc3ccc(OC)cc3c(SCCCl)c2c1 | > 85.5 µM
CC(Oc1ccccc1Cl)C(=O)NN1C(=O)CC(=O)N(c2ccc(Cl)cc2)C1=S (configuration not stated) | > 100 µM
CC(C)[Si]1(C(C)C)OCC2OC(n3ccc(=O)[nH]c3=O)C([Se]c3ccccc3)C2O[Si](C(C)C)(C(C)C)O1 (configuration not stated) | 0.677 µM
O=C1NCN(c2ccccc2)C12CCN(CC1COc3ccccc3O1)CC2 (configuration not stated) | 85.3 µM
O=C1OC([C@H](O)c2cccnc2)c2ccccc21 (some centres not stated) | > 10 µM
CC(C)(C)OC(=O)N1CCCC1C(=O)NC(c1ccccc1)c1ccccc1 (configuration not stated) | > 100 µM
O=C1Cc2cn[nH]c2-c2ccccc2N1 | > 100 µM
O=CNc1ccccc1OCCOc1ccccc1NC=O | > 100 µM
C=CCN1CCC(c2cc(C(=O)OCC)[nH]c2-c2cc(C)no2)C1=O (configuration not stated) | > 100 µM
O=c1[nH][nH]c(=O)c2c1ccc1oc3ccccc3c12 | > 100 µM
O=C1CSC(c2ccccc2O)N1c1ccc(-n2c(-c3ccccc3)nc3ccccc3c2=O)cc1 (configuration not stated) | > 100 µM
Cc1ccc(C(=O)Oc2ccccc2)cc1N=NN(C)C | > 100 µM
O=C1NC2(CCNCC2)Oc2ccccc21 | > 100 µM
Cc1c(/C=N/NC(=S)N2CCCCC2)c(=O)n(-c2ccccc2)n1C | > 100 µM
CC(C)(C)OC(=O)CCCCCNC(=O)CCCCCNC(=O)CCC(CN(CC(=O)OCc1ccccc1)CC(=O)OCc1ccccc1)N(CC(=O)OCc1ccccc1)CC(=O)OCc1ccccc1 (configuration not stated) | > 100 µM
O=[N+]([O-])/C(Cl)=C(/C(Cl)=C(Cl)Cl)N1CCOCC1 | 38.3 µM
CN=c1sc2nc(C#N)c(C#N)nc2n1C | > 62.6 µM
CC(C)OP(=O)(OC(C)C)C(C)(C)O | > 100 µM
COC(=O)C(=O)Nc1cc2c3c(c1)Oc1cccc4c1C3(C)c1c(cccc1O2)O4 | > 100 µM

Each compound was assayed on NCI-H226 lung (assay: inhibition of tumour cell growth, NCI panel, 48 h).

SMILES | TGI
O=C(Nc1ccccc1)OCCN=C1c2ccccc2CCc2ccccc21 | 55 µM
COc1cc2cc(C(=O)N3CC(CCl)c4ccc([N+](C)(C)Cc5ccccc5[N+](=O)[O-])cc43)[nH]c2c(OC)c1OC (configuration not stated) | 19.5 µM
CC(C)[C@H]1NC(=O)[C@H]2N=C(S[C@H]2C)[C@@H]2CCCN2C(=O)[C@H](Cc2ccccc2)NC(=O)[C@@H]2CSC(=N2)[C@@H](Cc2ccccc2)NC(=O)[C@@H]2CSC1=N2 | > 50 µM
O=C1Oc2ccccc2C(=O)/C1=C/N1C(=O)CNC1=S | > 100 µM
CC1=NN(c2nc(N)nc(/C(C#N)=C\c3ccc(-c4ccc([N+](=O)[O-])cc4)o3)n2)C(C)(C)C1 | > 100 µM
COc1ccc2nc3ccc(OC)cc3c(SCCCl)c2c1 | > 100 µM
CC(Oc1ccccc1Cl)C(=O)NN1C(=O)CC(=O)N(c2ccc(Cl)cc2)C1=S (configuration not stated) | > 100 µM
CC(C)[Si]1(C(C)C)OCC2OC(n3ccc(=O)[nH]c3=O)C([Se]c3ccccc3)C2O[Si](C(C)C)(C(C)C)O1 (configuration not stated) | 3.88 µM
O=C1NCN(c2ccccc2)C12CCN(CC1COc3ccccc3O1)CC2 (configuration not stated) | > 100 µM
O=C1OC([C@H](O)c2cccnc2)c2ccccc21 (some centres not stated) | > 10 µM
CC(C)(C)OC(=O)N1CCCC1C(=O)NC(c1ccccc1)c1ccccc1 (configuration not stated) | > 100 µM
O=C1Cc2cn[nH]c2-c2ccccc2N1 | > 100 µM
O=CNc1ccccc1OCCOc1ccccc1NC=O | > 100 µM
C=CCN1CCC(c2cc(C(=O)OCC)[nH]c2-c2cc(C)no2)C1=O (configuration not stated) | > 100 µM
O=c1[nH][nH]c(=O)c2c1ccc1oc3ccccc3c12 | > 100 µM
O=C1CSC(c2ccccc2O)N1c1ccc(-n2c(-c3ccccc3)nc3ccccc3c2=O)cc1 (configuration not stated) | 97.5 µM
Cc1ccc(C(=O)Oc2ccccc2)cc1N=NN(C)C | > 100 µM
O=C1NC2(CCNCC2)Oc2ccccc21 | > 100 µM
Cc1c(/C=N/NC(=S)N2CCCCC2)c(=O)n(-c2ccccc2)n1C | > 100 µM
CC(C)(C)OC(=O)CCCCCNC(=O)CCCCCNC(=O)CCC(CN(CC(=O)OCc1ccccc1)CC(=O)OCc1ccccc1)N(CC(=O)OCc1ccccc1)CC(=O)OCc1ccccc1 (configuration not stated) | > 100 µM
O=[N+]([O-])/C(Cl)=C(/C(Cl)=C(Cl)Cl)N1CCOCC1 | 40.4 µM
CN=c1sc2nc(C#N)c(C#N)nc2n1C | 38.8 µM
CC(C)OP(=O)(OC(C)C)C(C)(C)O | > 100 µM
COC(=O)C(=O)Nc1cc2c3c(c1)Oc1cccc4c1C3(C)c1c(cccc1O2)O4 | 44.8 µM

These compounds were tested on OVCAR-3 ovarian (assay: inhibition of tumour cell growth, NCI panel, 48 h).

SMILES | TGI
O=C(Nc1ccccc1)OCCN=C1c2ccccc2CCc2ccccc21 | 44.3 µM
COc1cc2cc(C(=O)N3CC(CCl)c4ccc([N+](C)(C)Cc5ccccc5[N+](=O)[O-])cc43)[nH]c2c(OC)c1OC (configuration not stated) | > 24.6 µM
CC(C)[C@H]1NC(=O)[C@H]2N=C(S[C@H]2C)[C@@H]2CCCN2C(=O)[C@H](Cc2ccccc2)NC(=O)[C@@H]2CSC(=N2)[C@@H](Cc2ccccc2)NC(=O)[C@@H]2CSC1=N2 | > 50 µM
O=C1Oc2ccccc2C(=O)/C1=C/N1C(=O)CNC1=S | > 100 µM
CC1=NN(c2nc(N)nc(/C(C#N)=C\c3ccc(-c4ccc([N+](=O)[O-])cc4)o3)n2)C(C)(C)C1 | > 100 µM
COc1ccc2nc3ccc(OC)cc3c(SCCCl)c2c1 | > 100 µM
CC(Oc1ccccc1Cl)C(=O)NN1C(=O)CC(=O)N(c2ccc(Cl)cc2)C1=S (configuration not stated) | > 100 µM
CC(C)[Si]1(C(C)C)OCC2OC(n3ccc(=O)[nH]c3=O)C([Se]c3ccccc3)C2O[Si](C(C)C)(C(C)C)O1 (configuration not stated) | 9.73 µM
O=C1NCN(c2ccccc2)C12CCN(CC1COc3ccccc3O1)CC2 (configuration not stated) | > 100 µM
O=C1OC([C@H](O)c2cccnc2)c2ccccc21 (some centres not stated) | > 10 µM
CC(C)(C)OC(=O)N1CCCC1C(=O)NC(c1ccccc1)c1ccccc1 (configuration not stated) | > 100 µM
O=C1Cc2cn[nH]c2-c2ccccc2N1 | 37.5 µM
